We go through 29 molecules from US4292321A, “1,3,8-Triazaspirodecane-4-ones, pharmaceutical compositions thereof and method of use thereof” (Warner-Lambert Company, priority 1980, dated 1981).

The structures appear in SMILES notation. Structures can show the parent of a compound that is named as a salt. Where two headings read alike, the source gives them in different places.

The experiment concerns the target T1, dopamine receptor (Bos taurus, UniProt P20288).
T1 construct: from tissue
As to the kind of experiment: 3H-haloperidol receptor binding assay (HRBA). The settings on record: for inhibition at 0.01 µM / inhibition at 0.1 µM / inhibition at 0.001 µM: read-out: inhibition of 3H-haloperidol binding. The source says:
The compounds of this invention are useful because of their valuable pharmacological properties. […] As with other known neuroleptics, the compounds of this invention readily displace ^3 H-haloperidol from dopamine receptor binding sights in the ^3 H-haloperidol receptor binding assay (HRBA). […] The HRBA screen is described by I. Creese, D. R. Burt and S. H. Snyder, Science 142: 480 (1976) and by B. Seeman, T. Lee, M. Chani-Wong and K. Wong, Nature 261: 717 […].

T1 sequence (P20288 whole entry): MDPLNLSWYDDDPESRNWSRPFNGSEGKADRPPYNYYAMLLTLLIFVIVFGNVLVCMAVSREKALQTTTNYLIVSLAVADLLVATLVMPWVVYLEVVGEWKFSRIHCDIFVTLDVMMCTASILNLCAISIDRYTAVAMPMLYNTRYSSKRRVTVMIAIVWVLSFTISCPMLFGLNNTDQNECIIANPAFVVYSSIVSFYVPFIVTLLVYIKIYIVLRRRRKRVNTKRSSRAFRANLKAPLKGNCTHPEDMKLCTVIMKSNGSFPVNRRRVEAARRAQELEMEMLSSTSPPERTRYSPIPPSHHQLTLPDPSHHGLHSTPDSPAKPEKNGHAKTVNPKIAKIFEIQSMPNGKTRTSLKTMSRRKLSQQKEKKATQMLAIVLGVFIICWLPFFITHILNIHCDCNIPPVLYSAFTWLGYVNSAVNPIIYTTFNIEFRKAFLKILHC

A word on the inhibition: it is the relative decrease from the control value, in per cent. For the molecule `O=C1NCN(c2ccccc2)C12CCN(CCCN(c1ccc(F)cc1)c1ccc(F)cc1)CC2` [Example 1, 8-[3-(Bis-[4-fluorophenyl]amino)propyl]-1-phenyl-1,3,8-triazaspiro[4,5]decan-4-one hydrobromide], the inhibition at 0.01 µM is approximately 73% and the inhibition at 0.1 µM is approximately 77%.
As to `O=C1NCN(c2ccc(F)cc2)C12CCN(CCCN(c1ccccc1)c1ccccc1)CC2` [Example 2, 8-[3-(Diphenylamino)propyl]-1-(4-fluorophenyl)-1,3,8-triazaspiro[4,5]decan-4-one], the inhibition at 0.01 µM is approximately 76% and the inhibition at 0.1 µM is approximately 85%.
As for `Cc1ccc(N2CNC(=O)C23CCN(CCCN(c2ccccc2)c2ccccc2)CC3)cc1` [Example 3, 8-[3-(Diphenylamino)propyl]-1-(4-methylphenyl)-1,3,8-triazaspiro[4,5]decan-4-one], the inhibition at 0.01 µM was approximately 71% and the inhibition at 0.1 µM is approximately 87%.
Consider `COc1ccc(N2CNC(=O)C23CCN(CCCN(c2ccccc2)c2ccccc2)CC3)cc1` [Example 4, 8-[3-(Diphenylamino)propyl]-1-(4-methoxyphenyl)-1,3,8-triazaspiro[4,5]decan-4-one], for which the inhibition at 0.01 µM is approximately 67% and the inhibition at 0.1 µM was approximately 98%.
Regarding `O=C1NCN(c2ccc(F)cc2)C12CCN(CCCN(c1ccc(F)cc1)c1ccc(F)cc1)CC2` [Example 5, 8-[3-[Bis-(4-fluorophenyl)amino]propyl]-1-(4-fluorophenyl)-1,3,8-triazaspiro[4,5]decan-4-one], the inhibition at 0.01 µM is approximately 84% and the inhibition at 0.1 µM was approximately 100%.
For the molecule `O=c1[nH]c2ccccc2n1C1CCN(CCCN(c2ccc(F)cc2)c2ccc(F)cc2)CC1` [Example 6, 1-(1[3-[Bis(4-fluorophenyl)amino]propyl]-4-piperidyl)-1,3-dihydro-2H-benzimidazol-2-one], under “1 n mole concentration”, the inhibition at 0.001 µM is approximately 50%. The inhibition at 0.01 µM (10 n moles concentration) was approximately 78%.
As for `O=c1[nH]c2ccccc2n1C1=CCN(CCCN(c2ccc(F)cc2)c2ccc(F)cc2)CC1` [Example 7, 1-[1-[3-[Bis(4-fluorophenyl)amino]propyl]-1,2,3,6-tetrahydro-4-pyridinyl]-1,3-dihydro-2H-benzimidazol-2-one hydrochloride], the inhibition at 0.01 µM is approximately 22% and the inhibition at 0.1 µM was approximately 67%.
For the molecule `Fc1ccc(N(CCCN2CCC(n3c(=S)[nH]c4ccccc43)CC2)c2ccc(F)cc2)cc1` [Example 8, 1-[1-(3-[Bis(4-fluorophenyl)amino]propyl)-4-piperidinyl]-1,3-dihydro-2H-benzimidazole-2-thione], the inhibition at 0.01 µM (10 n moles concentration) is approximately 28%. For the same molecule, the inhibition at 0.1 µM (100 n moles concentration) is approximately 89%.
For the molecule `O=c1[nH]c2ccccc2n1C1CCN(CCCN(c2ccccc2)c2ccccc2)CC1` [Example 9, 1-[1-(3-(Diphenylamino]propyl)-4-piperidinyl]-1,3-dihydro-2H-benzimidazol-2-one hydrochloride], the inhibition at 0.01 µM was approximately 68% and the inhibition at 0.1 µM was approximately 91%.
The like results for `O=c1[nH]c2ccccc2n1C1CCN(CCCN(c2ccccc2)c2ccc([N+](=O)[O-])cc2)CC1` [Example 10, 1,3-Dihydro-1-[1-(3-[(4-nitrophenyl)phenylamino]propyl)-4-piperidinyl]-2H-benzimidazol-2-one hydrochloride] were, in that order, approximately 17% and approximately 75%.
On to `Cc1cccc(N(CCCN2CCC(n3c(=O)[nH]c4ccccc43)CC2)c2ccccc2)c1` [Example 11, 1,3-Dihydro-1-[1-(3-[(3-methylphenyl)phenylamino]propyl-4-piperidinyl]-2H-benzimidazol-2-one hydrochloride], for which, for the setting “10 n moles concentration”, the inhibition at 0.01 µM is approximately 61%. Besides, the inhibition at 0.1 µM (100 n moles concentration) was approximately 91%.
As to `Cc1cc2[nH]c(=O)n(C3CCN(CCCN(c4ccccc4)c4ccccc4)CC3)c2cc1C` [Example 13, 1-[1-(3-[Diphenylamino]propyl)-4-piperidiyl]-1,3-dihydro-5,6-dimethyl-2H-benzimidazol-2-one], the inhibition at 0.01 µM (10 n moles concentration) is approximately 53%. Further, the inhibition at 0.1 µM (100 n moles concentration) was approximately 93%.
As to `O=c1[nH]c2ccccc2n1C1CCN(CCCN(c2ccc(F)cc2)c2ccccc2F)CC1` [Example 14, 1,3-Dihydro-1-[1-[3-[(4-fluorophenyl)-(2-fluorophenyl)amino]propyl]-4-piperidinyl]-2H-benzimidazol-2-one], the inhibition at 0.001 µM (1 n mole concentration) was approximately 56%. Also, under “10 n moles concentration”, the inhibition at 0.01 µM is approximately 92%. The inhibition at 0.1 µM (100 n moles concentration) is approximately 100%.
`O=c1[nH]c2ccccc2n1C1CCN(CCCN(c2ccccc2)c2ccc(F)cc2)CC1` [Example 15, 1,3-Dihydro-1-[1-[3-[(4-fluorophenyl)phenylamino]propyl]-4-piperidinyl]-2H-benzimidazol-2-one]: the inhibition at 0.01 µM (10 n moles concentration) is approximately 74%. Moreover, where the note is “100 n moles concentration”, the inhibition at 0.1 µM is approximately 100%.
On to `Cc1cc2c(cc1C)n(C1CCN(CCCN(c3ccccc3)c3ccccc3)CC1)c(=O)n2C` [Example 16, 1-[1-([3-Diphenylamino]propyl)-4-piperidinyl]-1,3-dihydro-3,5,6-trimethyl-2H-benzimidazol-2-one butenedioate], for which the inhibition at 0.01 µM (10 n moles concentration) is approximately 6%. In addition, the inhibition at 0.1 µM (100 n moles concentration) is approximately 60%.
Regarding `Cc1cc2[nH]c(=O)n(C3CCN(CCCN(c4ccc(F)cc4)c4ccc(F)cc4)CC3)c2cc1C` [Example 17, 1-[1-[3-[Bis-(4-fluorophenyl)amino]propyl]-4-piperidyl]-1,3-dihydro-5,6-dimethyl-2H-benzimidazol-2-one], the inhibition at 0.001 µM (1 n mole concentration) is approximately 29%. In addition, for the setting “10 n moles concentration”, the inhibition at 0.01 µM is approximately 85%. Besides, the inhibition at 0.1 µM (100 n moles concentration) is approximately 100%.
As to `OC1(c2cccc(F)c2)CCN(CCCN(c2ccccc2)c2ccccc2)CC1` [Example 18, 1-[3-(Diphenylamino)propyl]-4-(3-fluorophenyl)-4-piperidinol ethanedioate], the inhibition at 0.01 µM was approximately 23% and the inhibition at 0.1 µM was approximately 83%.
Take `OC1(c2ccc(F)cc2)CCN(CCCN(c2ccc(F)cc2)c2ccc(F)cc2)CC1` [Example 19, 4-(4-Fluorophenyl)-1-(3-[bis(4-fluorophenyl)amino]propyl)-4-piperidinol hydrochloride]: the inhibition at 0.001 µM was approximately 25% and the inhibition at 0.01 µM is approximately 82%.
In the case of `OC1(c2ccc(Cl)cc2)CCN(CCCN(c2ccc(F)cc2)c2ccc(F)cc2)CC1` [Example 20, 1-(3-[Bis(4-fluorophenyl)amino]propyl)-4-(4-chlorophenyl)-4-piperidinol ethanedioate], the inhibition at 0.01 µM was approximately 74% and the inhibition at 0.1 µM was approximately 100%.
Take `C1=C(Oc2ccccc2)CCN(CCCN(c2ccccc2)c2ccccc2)C1` [Example 21, 3,6-Dihydro-4-phenoxy-N,N-diphenyl-1(2H)-pyridinepropanamine ethanedioate.]: the inhibition at 0.01 µM (10 n moles concentration) is approximately 8%. For the same molecule, where the note is “100 n moles concentration”, the inhibition at 0.1 µM is approximately 48%.
As to `c1ccc(OC2CCN(CCCN(c3ccccc3)c3ccccc3)CC2)cc1` [Example 22, 4-Phenoxy-N,N-diphenyl-1-piperidinepropanamine ethanedioate], the inhibition at 0.01 µM is approximately 7% and the inhibition at 0.1 µM is approximately 59%.
`FC(F)(F)c1cccc(OC2=CCN(CCCN(c3ccccc3)c3ccccc3)CC2)c1` [Example 23, 3,6-Dihydro-N,N-diphenyl-4-[(3-trifluoromethyl)phenoxy]-1(2H)-pyridinepropanamine ethanedioate]: the inhibition at 0.01 µM (10 n moles concentration) was approximately 6%. Further, the inhibition at 0.1 µM (100 n moles concentration) was approximately 24%.
With `FC(F)(F)c1cccc(OC2CCN(CCCN(c3ccccc3)c3ccccc3)CC2)c1.O=C(O)C(=O)O` [Example 24, N,N-diphenyl-4-[3-(trifluoromethyl)phenoxy]-1-piperidinepropanamine ethanedioate], the inhibition at 0.1 µM is approximately 8%. For the same molecule, for the setting “10 n moles concentration”, the “inhibition of 3H-haloperidol binding” value is given as “no inhibition”.
For `Fc1ccc(OC2=CCN(CCCN(c3ccc(F)cc3)c3ccc(F)cc3)CC2)cc1` [Example 25, 4-(4-Fluorophenoxy)-N,N-bis(4-fluorophenyl)-1,2,3,6-tetrahydro-1-pyridinepropanamine-d-2,3-dihydroxybutanedioate], the “inhibition of 3H-haloperidol binding” value (1 n mole concentration) is given as “no inhibition”. Further, where the note is “10 n moles concentration”, the inhibition at 0.01 µM was approximately 43%.
As for `Clc1ccc(OC2=CCN(CCCN(c3ccccc3)c3ccccc3)CC2)cc1Cl.O=C(O)C(=O)O` [Example 26, 4-(3,4-Dichlorophenoxy)-3,6-dihydro-N,N-diphenyl-1(2H)-pyridinepropanamine ethanedioate], the inhibition at 0.1 µM is approximately 26%. Further, the “inhibition of 3H-haloperidol binding” value (10 n moles concentration) is given as “no inhibition”.
`Fc1ccc(N2CCN(CCCN(c3ccccc3)c3ccccc3)CC2)cc1` [Example 31, 4-(4-Fluorophenyl)-N,N-diphenyl-1-piperazinepropanamine]: the “inhibition of 3H-haloperidol binding” value (10 n moles concentration) is on record as “no inhibition”. Moreover, the inhibition at 0.1 µM (100 n moles concentration) is approximately 12%.
As to `c1ccc(CN2CCN(CCCN(c3ccccc3)c3ccccc3)CC2)cc1` [Example 32, N,N-diphenyl-4-(phenylmethyl)-1-piperazinepropanamine ethanedioate], the inhibition at 0.01 µM was approximately 16% and the inhibition at 0.1 µM was approximately 33%.
On to `CC(C)Sc1ccccc1N1CCN(CCCN(c2ccccc2)c2ccccc2)CC1.Cl` [Example 33, 4-[2-[(1-Methylethyl)thio]phenyl]-N,N-diphenyl-1-piperazinepropanamine hydrochloride], for which the inhibition at 0.1 µM is approximately 28%. In addition, the “inhibition of 3H-haloperidol binding” value (10 n moles concentration) is recorded as “no inhibition”.
For the molecule `CCCSc1ccccc1N1CCN(CCCN(c2ccccc2)c2ccccc2)CC1` [Example 34, N,N-diphenyl-4-[2-(propylthio)phenyl]-1-piperazinepropanamine ethanedioate], the inhibition at 0.01 µM was approximately 6% and the inhibition at 0.1 µM is approximately 64%.
